From publication PMC8484532, “Synthesis and Evaluation of New Halogenated GR24 Analogs as Germination Promotors for Orobanche cumana” (Frontiers in Plant Science, 2021) come the findings set out here.

Where two headings read alike, the source gives them in different places.

The target of this assay is T1, ShHTL7 (Striga hermonthica, UniProt A0A0M3PNA2).
T1 sequence (A0A0M3PNA2 1-271): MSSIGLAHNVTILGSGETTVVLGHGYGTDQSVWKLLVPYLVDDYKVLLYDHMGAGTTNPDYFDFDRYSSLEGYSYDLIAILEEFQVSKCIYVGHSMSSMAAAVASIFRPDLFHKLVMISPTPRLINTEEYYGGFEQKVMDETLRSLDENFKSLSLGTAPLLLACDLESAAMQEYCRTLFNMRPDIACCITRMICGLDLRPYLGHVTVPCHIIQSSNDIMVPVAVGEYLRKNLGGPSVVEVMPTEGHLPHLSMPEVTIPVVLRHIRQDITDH
Kind of assay: in vitro yoshimulactone green (YLG) fluorescence competition assay. Format: biochemical.

What is called IC50 is the concentration needed to halve the response being measured.

For `CC1=CC(O/C=C2/C(=O)OC3c4cc(F)ccc4CC23)OC1=O` (stereo not shown) [7FGR24, 7-fluoro-GR24], the IC50 (read-out: IC50) amounted to 189 ± 12 nM.

For the molecule `CC1=CC(O/C=C2/C(=O)OC3c4ccccc4CC23)OC1=O` (racemic) [rac-GR24], the 50% inhibitory concentration (IC50) came to 319 ± 32 nM.

Consider `CC1=C[C@H](O/C=C2/C(=O)O[C@@H]3c4ccccc4C[C@H]23)OC1=O` [(+)-GR24], for which the IC50 was 248 ± 32 nM.

On to `CC1=CC(O/C=C2/C(=O)OC3c4cc(Br)ccc4CC23)OC1=O` (stereo not shown) [7BrGR24, 7-bromo-GR24], for which the IC50 (read-out: IC50) amounted to 521 ± 87 nM.
